Source: the supplement of paper PMC11208160

Experiment: recombinant UMI read abundance after kanamycin selection (control-corrected) (log10(CPM+1)); higher = more efficient recombination; extreme values may be limits of the assay; sequences stand for … in AGTGCAGAGAAAATCGGCCAGTTTTCTCTGCCTGCAGTCCGCATGCCGTGGGACCCCTTGGGTTCTAACCTGTTGCCTAGATTTATGCAGCGGACTGCCTTTCTCCCAAAGTGATAAACCGG…AGGTTGGTTTCACT; site = the 11-nt donor
In short: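 Values are reported as log10(CPM+1), obtained by converting sequencing counts to CPM, averaging replicates and scaling by control-derived factors. The counts came from recombinant UMIs amplified by PCR across the donor–target junction. These UMIs came from a pooled Escherichia coli screen of donor and donor-binding-loop pairs for the IS621 bridge recombinase, plated with IPTG (0.07 mM) plus kanamycin or left unselected, in two replicates each.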
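Also: IS621 bridge recombinase in Escherichia coli cells against a fixed T5 target plasmid.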

| Sequence | recombinant UMI read abundance (log10) |
| --- | --- |
| AGCTCAGCATGGACCGGTTTTCCCGGTAATCCGTATTTGGG (site AGCTCAACTCC) | 0 |
| AGCTCAGCATGGACCGGTTTTCCCGGTAATCCGTATTTGGG (site AGCTCACCTCC) | 0.00337 |
| AGCTCAGCATGGACCGGTTTTCCCGGTAATCCGTATTTGGG (site AGCTCAGCTAC) | 0.00707 |
| AGCTCAGCATGGACCGGTTTTCCCGGTAATCCGTATTTGGG (site AGCTCAGCTCA) | 0.0167 |
| AGCTCAGCATGGACCGGTTTTCCCGGTAATCCGTATTTGGG (site AGCTCAGCTCC) | 0.0108 |
| AGCTCAGCATGGACCGGTTTTCCCGGTAATCCGTATTTGGG (site AGCTCAGCTCG) | 0.0246 |
| AGCTCAGCATGGACCGGTTTTCCCGGTAATCCGTATTTGGG (site AGCTCAGCTCT) | 0.337 |
| AGCTCAGCATGGACCGGTTTTCCCGGTAATCCGTATTTGGG (site AGCTCAGCTGC) | 0 |
| AGCTCAGCATGGACCGGTTTTCCCGGTAATCCGTATTTGGG (site AGCTCAGCTTC) | 0.0127 |
| AGCTCAGCATGGACCGGTTTTCCCGGTAATCCGTATTTGGG (site AGCTCATCTCC) | 0.0384 |
| AGCTCAGCATGGACCGGTTTTCCCGGTAATCCGTATTTGGG (site AGCTCCGCTCC) | 0.0147 |
| AGCTCAGCATGGACCGGTTTTCCCGGTAATCCGTATTTGGG (site AGCTCGGCTCC) | 0.0329 |
| AGCTCAGCATGGACCGGTTTTCCCGGTAATCCGTATTTGGG (site AGCTCTGCTCC) | 0.0255 |
| AGCTCAGCATGGACCGGTTTTCCCGGTAATCCGTATTTGGG (site AGCTGAGCTCC) | 0 |
| AGCTCAGCATGGACCGGTTTTCCCGGTAATCCGTATTTGGG (site AGCTTAGCTCC) | 0.0288 |
| AGCTCAGCATGGACCGGTTTTCCCGGTAATCCGTATTTGGG (site AGGTCAGCTCC) | 0.00833 |
| AGCTCAGCATGGACCGGTTTTCCCGGTAATCCGTATTTGGG (site AGTTCAGCTCC) | 0.0207 |
| AGCTCAGCATGGACCGGTTTTCCCGGTAATCCGTATTTGGG (site ATCTCAGCTCC) | 0.019 |
| AGCTCAGCATGGACCGGTTTTCCCGGTAATCCGTATTTGGG (site CGCTCAGCTCC) | 0.299 |
| AGCTCAGCATGGACCGGTTTTCCCGGTAATCCGTATTTGGG (site GGCTCAGCTCC) | 0.0255 |
| AGCTCAGCATGGACCGGTTTTCCCGGTAATCCGTATTTGGG (site TGCTCAGCTCC) | 0.366 |
| AGCTCAGCATGGACCGGTTTTCCCGGTAATCCGTATTTGGT (site AGCTCAGCTAC) | 1.27 |
| AGCTCAGCATGGACCGGTTTTCCCGGTAATCCGTATTTGGT (site AGCTCAGCTCC) | 0.0126 |

| Sequence | recombinant UMI read abundance (log10) |
| --- | --- |
| AGCTCAGCATGGACCGGTTTTCCCGGTAATCCGTATTTGGT (site AGCTCAGCTGC) | 0 |
| AGCTCAGCATGGACCGGTTTTCCCGGTAATCCGTATTTGGT (site AGCTCAGCTTC) | 0.0112 |
| AGCTCCGCATGGACCGGTTTTCCCGGTAATCCGTATTTGGG (site AGCTCAGCTCC) | 0.00775 |
| AGCTCCGCATGGACCGGTTTTCCCGGTAATCCGTATTTGGG (site AGCTCCGCTCC) | 0.211 |
| AGCTCCGCATGGACCGGTTTTCCCGGTAATCCGTATTTGGG (site AGCTCGGCTCC) | 0.0125 |
| AGCTCCGCATGGACCGGTTTTCCCGGTAATCCGTATTTGGG (site AGCTCTGCTCC) | 0.00972 |
| AGCTGGGCATGGACCGGTTTTCCCGGTAATCCGTATTTGTA (site AGCTGGGCTTA) | 2.76 |
| AGCTTAGCATGGACCGGTTTTCCCGGTAATCCGTATTTGCC (site AGCTTAGCTGG) | 0 |
| AGCTTCCCATGGACCGGTTTTCCCGGTAATCCGTATTTGTG (site AGATTCCCTCA) | 0.114 |
| AGCTTCCCATGGACCGGTTTTCCCGGTAATCCGTATTTGTG (site AGCTTCCCTCA) | 0.00566 |
| AGCTTCCCATGGACCGGTTTTCCCGGTAATCCGTATTTGTG (site AGGTTCCCTCA) | 0.00784 |
| AGCTTCCCATGGACCGGTTTTCCCGGTAATCCGTATTTGTG (site AGTTTCCCTCA) | 0.0209 |
| AGCTTTCCATGGACCGGTTTTCCCGGTAATCCGTATTTGGA (site AGCTTTCCTTC) | 0.00277 |
| AGGAAAACATGGACCGGTTTTCCCGGTAATCCGTATTTGCA (site AGGAAAACTTG) | 0.959 |
| AGGAAAACATGGACCGGTTTTCCCGGTAATCCGTATTTGCA (site AGGAACACTTG) | 0 |
| AGGAAAACATGGACCGGTTTTCCCGGTAATCCGTATTTGCA (site AGGAAGACTTG) | 0 |
| AGGAAAACATGGACCGGTTTTCCCGGTAATCCGTATTTGCA (site AGGAATACTTG) | 0 |
| AGGAAAACATGGACCGGTTTTCCCGGTAATCCGTATTTGTA (site AGGAAAACTTA) | 1.92 |
| AGGAAAACATGGACCGGTTTTCCCGGTAATCCGTATTTGTA (site AGGAAGACTTG) | 0 |
| AGGAACACATGGACCGGTTTTCCCGGTAATCCGTATTTGCA (site AGGAAAACTTG) | 0 |
| AGGAACACATGGACCGGTTTTCCCGGTAATCCGTATTTGCA (site AGGAACACTTG) | 2.52 |
| AGGAACACATGGACCGGTTTTCCCGGTAATCCGTATTTGCA (site AGGAAGACTTG) | 0 |
| AGGAACACATGGACCGGTTTTCCCGGTAATCCGTATTTGCA (site AGGAATACTTG) | 0.211 |

| Sequence | recombinant UMI read abundance (log10) |
| --- | --- |
| AGGAAGGCATGGACCGGTTTTCCCGGTAATCCGTATTTGCT (site AGAAAGGCTAG) | 2.69 |
| AGGAAGGCATGGACCGGTTTTCCCGGTAATCCGTATTTGCT (site AGCAAGGCTAG) | 0.362 |
| AGGAAGGCATGGACCGGTTTTCCCGGTAATCCGTATTTGCT (site AGGAAGACTTG) | 0.296 |
| AGGAAGGCATGGACCGGTTTTCCCGGTAATCCGTATTTGCT (site AGGAAGGCTAG) | 2.27 |
| AGGAAGGCATGGACCGGTTTTCCCGGTAATCCGTATTTGCT (site AGTAAGGCTAG) | 1.3 |
| AGGAAGGCATGGACCGGTTTTCCCGGTAATCCGTATTTGGA (site AGGAAGACTTG) | 0.224 |
| AGGAAGGCATGGACCGGTTTTCCCGGTAATCCGTATTTGGA (site AGGAAGGCTTC) | 1.73 |
| AGGAAGTCATGGACCGGTTTTCCCGGTAATCCGTATTTGCA (site AGGAAGACTTG) | 0.839 |
| AGGAAGTCATGGACCGGTTTTCCCGGTAATCCGTATTTGCA (site AGGAAGCCTTG) | 0.641 |
| AGGAAGTCATGGACCGGTTTTCCCGGTAATCCGTATTTGCA (site AGGAAGGCTTG) | 0 |
| AGGAAGTCATGGACCGGTTTTCCCGGTAATCCGTATTTGCA (site AGGAAGTCTTG) | 3.29 |
| AGGAAGTCATGGACCGGTTTTCCCGGTAATCCGTATTTGTC (site AGGAAGTCTGA) | 3.14 |
| AGGAATTCATGGACCGGTTTTCCCGGTAATCCGTATTTGTT (site AGGAATTCTAA) | 2.16 |
| AGGAATTCATGGACCGGTTTTCCCGGTAATCCGTATTTGTT (site CGGAATCCTAA) | 0 |
| AGGACGACATGGACCGGTTTTCCCGGTAATCCGTATTTGCA (site AGGAAGACTTG) | 0.601 |
| AGGACGACATGGACCGGTTTTCCCGGTAATCCGTATTTGCA (site AGGACGACTTG) | 2.51 |
| AGGACGACATGGACCGGTTTTCCCGGTAATCCGTATTTGCA (site AGGAGGACTTG) | 1.38 |
| AGGACGACATGGACCGGTTTTCCCGGTAATCCGTATTTGCA (site AGGATGACTTG) | 0.853 |
| AGGACGACATGGACCGGTTTTCCCGGTAATCCGTATTTGGA (site AGGAAGACTTG) | 0 |
| AGGACGACATGGACCGGTTTTCCCGGTAATCCGTATTTGGA (site AGGACGACTTC) | 0.813 |
| AGGACTACATGGACCGGTTTTCCCGGTAATCCGTATTTGGC (site AGGACTACTGA) | 0 |
| AGGACTACATGGACCGGTTTTCCCGGTAATCCGTATTTGGC (site AGGACTACTGC) | 2.95 |
